Assay [1] addresses Epidermal growth factor receptor (Homo sapiens, UniProt P00533). The experiment in a line: Inhibition of EGFR (unknown origin) by Z-LYTE assay.
The target in assay [2] is Receptor tyrosine-protein kinase erbB-2 (Homo sapiens, UniProt P04626). The experiment in a line: Inhibition of HER2 (unknown origin) by Z-LYTE assay.
The subject of assay [3] is KB. The experiment in a line: Cytotoxicity against human KB cells after 48 hrs. The format is cell-based.
Assay [4] has as its system L1210. The assay is described as follows: Cytotoxicity against mouse L1210 cells after 48 hrs. The assay is classed as cell-based. To be noted: L1210, 48 h.

≈ marks a conversion by molar mass, not a printed value.

Chain of Epidermal growth factor receptor (P00533 whole entry): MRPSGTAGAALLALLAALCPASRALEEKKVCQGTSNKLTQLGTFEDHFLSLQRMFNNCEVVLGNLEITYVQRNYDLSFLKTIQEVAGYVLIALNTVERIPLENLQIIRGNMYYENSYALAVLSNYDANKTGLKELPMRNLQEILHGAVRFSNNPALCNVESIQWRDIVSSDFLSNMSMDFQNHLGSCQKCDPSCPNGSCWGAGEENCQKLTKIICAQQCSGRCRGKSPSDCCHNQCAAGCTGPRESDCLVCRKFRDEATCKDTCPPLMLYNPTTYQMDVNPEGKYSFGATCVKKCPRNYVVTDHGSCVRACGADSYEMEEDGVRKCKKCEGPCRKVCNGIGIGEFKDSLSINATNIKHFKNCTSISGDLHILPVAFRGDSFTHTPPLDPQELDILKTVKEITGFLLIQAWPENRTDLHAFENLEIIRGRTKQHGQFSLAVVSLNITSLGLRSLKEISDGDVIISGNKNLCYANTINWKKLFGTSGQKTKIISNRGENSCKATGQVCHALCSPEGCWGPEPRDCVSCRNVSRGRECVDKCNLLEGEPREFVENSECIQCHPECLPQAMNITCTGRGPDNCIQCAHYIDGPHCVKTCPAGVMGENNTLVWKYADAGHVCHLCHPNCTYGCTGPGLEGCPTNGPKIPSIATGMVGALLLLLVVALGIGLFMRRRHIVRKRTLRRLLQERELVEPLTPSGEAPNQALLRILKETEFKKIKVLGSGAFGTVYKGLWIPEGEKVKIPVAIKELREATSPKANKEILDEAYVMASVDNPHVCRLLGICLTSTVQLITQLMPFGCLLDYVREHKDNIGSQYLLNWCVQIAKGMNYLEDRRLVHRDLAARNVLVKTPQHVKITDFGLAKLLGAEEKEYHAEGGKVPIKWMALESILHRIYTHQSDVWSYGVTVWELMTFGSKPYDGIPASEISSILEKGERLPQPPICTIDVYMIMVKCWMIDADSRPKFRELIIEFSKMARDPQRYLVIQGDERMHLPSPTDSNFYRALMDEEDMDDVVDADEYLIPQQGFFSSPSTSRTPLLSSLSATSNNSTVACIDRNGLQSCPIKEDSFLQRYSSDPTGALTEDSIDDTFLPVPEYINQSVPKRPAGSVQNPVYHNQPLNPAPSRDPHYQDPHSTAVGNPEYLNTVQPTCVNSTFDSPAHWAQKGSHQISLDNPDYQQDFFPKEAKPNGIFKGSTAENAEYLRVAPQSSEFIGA
Chain of Receptor tyrosine-protein kinase erbB-2 (P04626 whole entry): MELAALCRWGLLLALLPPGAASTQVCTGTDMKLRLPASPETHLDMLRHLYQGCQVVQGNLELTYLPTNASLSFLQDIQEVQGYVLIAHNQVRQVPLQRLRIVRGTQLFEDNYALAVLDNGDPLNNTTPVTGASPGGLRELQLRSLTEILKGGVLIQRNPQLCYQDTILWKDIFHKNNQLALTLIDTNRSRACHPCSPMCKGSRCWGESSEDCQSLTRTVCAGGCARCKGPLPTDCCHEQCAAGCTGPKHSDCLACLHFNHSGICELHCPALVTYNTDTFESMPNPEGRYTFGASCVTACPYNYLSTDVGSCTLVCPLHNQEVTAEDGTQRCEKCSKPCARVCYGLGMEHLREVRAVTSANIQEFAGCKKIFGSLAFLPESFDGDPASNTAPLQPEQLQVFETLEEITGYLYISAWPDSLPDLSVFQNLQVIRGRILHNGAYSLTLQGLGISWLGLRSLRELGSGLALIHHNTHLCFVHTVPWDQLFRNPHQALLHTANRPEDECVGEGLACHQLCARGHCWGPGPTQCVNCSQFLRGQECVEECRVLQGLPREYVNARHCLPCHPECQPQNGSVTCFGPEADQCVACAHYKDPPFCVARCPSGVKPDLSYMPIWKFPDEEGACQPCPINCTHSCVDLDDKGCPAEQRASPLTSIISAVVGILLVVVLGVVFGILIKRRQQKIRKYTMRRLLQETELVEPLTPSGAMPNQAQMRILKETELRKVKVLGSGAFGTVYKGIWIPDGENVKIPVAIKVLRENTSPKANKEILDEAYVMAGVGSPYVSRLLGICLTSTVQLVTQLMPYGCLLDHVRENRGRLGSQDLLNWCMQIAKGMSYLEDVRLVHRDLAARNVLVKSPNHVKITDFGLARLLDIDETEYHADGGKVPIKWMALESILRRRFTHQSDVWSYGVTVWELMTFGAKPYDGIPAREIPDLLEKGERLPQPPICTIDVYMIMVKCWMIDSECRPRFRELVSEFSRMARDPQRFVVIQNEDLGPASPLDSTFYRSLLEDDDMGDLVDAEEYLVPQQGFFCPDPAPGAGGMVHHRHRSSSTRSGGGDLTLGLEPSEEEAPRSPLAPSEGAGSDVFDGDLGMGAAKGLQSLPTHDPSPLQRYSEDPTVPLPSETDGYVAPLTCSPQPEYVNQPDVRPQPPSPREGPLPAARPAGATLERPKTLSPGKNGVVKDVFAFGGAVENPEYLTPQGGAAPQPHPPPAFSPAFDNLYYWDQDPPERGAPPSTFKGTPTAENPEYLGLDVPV

In general, IC50 refers to the concentration that inhibits the measured activity by half. Lower therefore signals higher potency. On to `C=C1[C@H](C)CCC[C@]1(C)CC/C(C)=C/CC1=C(O)C(=O)C=C(N[C@@H](C(=O)O)[C@H](C)O)C1=O`, for which the IC50 in assay [1] was over 449 µM; in assay [2], over 449 µM; in assay [3] it was over 10 µg/mL; in assay [4], 4.6 µg/mL (≈ 10.3 µM).
In the case of `CC1=CCC[C@](C)(CC/C(C)=C/CC2=C(O)C(=O)C=C(N[C@@H](C(=O)O)[C@H](C)O)C2=O)[C@@H]1C`, the IC50 in assay [1] is over 449 µM; in assay [2], 215 µM; in assay [3], over 10 µg/mL; in assay [4], over 10 µg/mL.
Turning to `C=C1[C@H](C)CCC[C@]1(C)CC/C(C)=C/CC1=C(O)C(=O)C=C(N[C@H](C(=O)O)[C@H](C)O)C1=O`, the concentration for half-maximal inhibition (IC50) in assay [1] is over 449 µM; in assay [2] it was over 449 µM; in assay [3], over 10 µg/mL; in assay [4], over 10 µg/mL.
With `CC1=CCC[C@](C)(CC/C(C)=C/CC2=C(O)C(=O)C=C(N[C@H](C(=O)O)[C@H](C)O)C2=O)[C@@H]1C`, the IC50 in assay [1] is over 449 µM; in assay [2] it was 89.8 µM; in assay [3] it was over 10 µg/mL; in assay [4], over 10 µg/mL.
Turning to `C=C1[C@H](C)CCC[C@]1(C)CC/C(C)=C/CC1=C(O)C(=O)C=C(N[C@@H](C(=O)O)[C@@H](C)O)C1=O`, the concentration for half-maximal inhibition (IC50) is 211 µM in assay [1], 180 µM in assay [2], over 10 µg/mL in assay [3] and over 10 µg/mL in assay [4].
Regarding `CC1=CCC[C@](C)(CC/C(C)=C/CC2=C(O)C(=O)C=C(N[C@@H](C(=O)O)[C@@H](C)O)C2=O)[C@@H]1C`, the IC50 was 269 µM in assay [1], over 449 µM in assay [2], over 10 µg/mL in assay [3] and over 10 µg/mL in assay [4].
Regarding `C=C1[C@H](C)CCC[C@]1(C)CC/C(C)=C/CC1=C(O)C(=O)C=C(N[C@H](CO)C(=O)O)C1=O`, the IC50 was over 463 µM in assay [1], over 463 µM in assay [2], over 10 µg/mL in assay [3] and 2.6 µg/mL (≈ 6.03 µM) in assay [4].
As for `CC1=CCC[C@](C)(CC/C(C)=C/CC2=C(O)C(=O)C=C(N[C@H](CO)C(=O)O)C2=O)[C@@H]1C`, the IC50 was over 463 µM in assay [1], over 463 µM in assay [2], over 10 µg/mL in assay [3] and over 10 µg/mL in assay [4].
For the compound `C=C1[C@H](C)CCC[C@]1(C)CC/C(C)=C/CC1=C(O)C(=O)C=C(N[C@H](C(=O)O)C(C)C)C1=O`, the half-inhibitory concentration (IC50) is 435 µM in assay [1], 104 µM in assay [2], over 10 µg/mL in assay [3] and 4.4 µg/mL (≈ 9.92 µM) in assay [4].
Take `CC1=CCC[C@](C)(CC/C(C)=C/CC2=C(O)C(=O)C=C(N[C@H](C(=O)O)C(C)C)C2=O)[C@@H]1C`: the IC50 is 293 µM in assay [1], 78.9 µM in assay [2], over 10 µg/mL in assay [3] and 3.4 µg/mL (≈ 7.66 µM) in assay [4].
The like results for `C=C1[C@H](C)CCC[C@]1(C)CC/C(C)=C/CC1=C(O)C(=O)C=C(N[C@@H](C(=O)O)C(C)C)C1=O` were, in that order, 293 µM, 142 µM, 6.2 µg/mL (≈ 14 µM) and 3.4 µg/mL (≈ 7.66 µM).
The like results for `CC1=CCC[C@](C)(CC/C(C)=C/CC2=C(O)C(=O)C=C(N[C@@H](C(=O)O)C(C)C)C2=O)[C@@H]1C` were, in that order, 334 µM, 83.4 µM, over 10 µg/mL and 3 µg/mL (≈ 6.76 µM).
Take `C=C1[C@H](C)CCC[C@]1(C)CC/C(C)=C/CC1=C(O)C(=O)C=C(OC)C1=O` [METACHROMIN A]: the IC50 was over 558 µM in assay [1], over 558 µM in assay [2], over 10 µg/mL in assay [3] and 2.4 µg/mL (≈ 6.69 µM) in assay [4].
Take `COC1=CC(=O)C(O)=C(C/C=C(\C)CC[C@@]2(C)CCC=C(C)[C@H]2C)C1=O` [METACHROMIN C]: the 50% inhibitory concentration (IC50) is over 558 µM in assay [1], over 558 µM in assay [2] and over 10 µg/mL in assay [3].
Consider `C=C1[C@H](C)CCC[C@]1(C)CC/C(C)=C/CC1=C(O)C(=O)C=C(NCC(=O)O)C1=O` [METACHROMIN L], for which the IC50 was 491 µM in assay [1], 311 µM in assay [2], 4 µg/mL (≈ 9.96 µM) in assay [3] and 4 µg/mL (≈ 9.96 µM) in assay [4].
In the case of `CC1=CCC[C@](C)(CC/C(C)=C/CC2=C(O)C(=O)C=C(NCC(=O)O)C2=O)[C@@H]1C` [METACHROMIN M], the IC50 in assay [1] is over 498 µM; in assay [2], 197 µM; in assay [3] it was 5.4 µg/mL (≈ 13.4 µM); in assay [4], 3.5 µg/mL (≈ 8.72 µM).
Regarding `C=C1[C@H](C)CCC[C@]1(C)CC/C(C)=C/CC1=C(O)C(=O)C=C(N[C@H](C(=O)O)[C@@H](C)O)C1=O` [METACHROMIN N], the half-maximal inhibitory concentration (IC50) in assay [1] is over 449 µM; in assay [2], 426 µM; in assay [3], over 10 µg/mL; in assay [4], over 10 µg/mL.
As for `CC1=CCC[C@](C)(CC/C(C)=C/CC2=C(O)C(=O)C=C(N[C@H](C(=O)O)[C@@H](C)O)C2=O)[C@@H]1C` [METACHROMIN O], the IC50 in assay [1] was over 449 µM; in assay [2], 60.6 µM; in assay [3], over 10 µg/mL; in assay [4] it was over 10 µg/mL.
As for `C=C1[C@H](C)CCC[C@]1(C)CC/C(C)=C/CC1=C(O)C(=O)C=C(N[C@@H](CO)C(=O)O)C1=O` [METACHROMIN P], the concentration for half-maximal inhibition (IC50) in assay [1] is over 463 µM; in assay [2], 41.7 µM; in assay [3], over 10 µg/mL; in assay [4], over 10 µg/mL.
As to `CC1=CCC[C@](C)(CC/C(C)=C/CC2=C(O)C(=O)C=C(N[C@@H](CO)C(=O)O)C2=O)[C@@H]1C` [METACHROMIN Q], the IC50 was over 463 µM in assay [1], 51 µM in assay [2], over 10 µg/mL in assay [3] and over 10 µg/mL in assay [4].
With `CC1=CCC[C@H]2[C@](C)(CC3=C(O)C(=O)C=C(N[C@@H](CO)C(=O)O)C3=O)[C@@H](C)CC[C@]12C` [NAKIJIQUINONE C], the IC50 in assay [1] was 290 µM; in assay [2] it was 69.5 µM; in assay [3] it was 7.6 µg/mL (≈ 17.6 µM); in assay [4], 3.8 µg/mL (≈ 8.81 µM).

These data come from ChEMBL document CHEMBL2311476, “Inhibitory effects of metachromins L-Q and its related analogs against receptor tyrosine kinases EGFR and HER2” (Bioorg Med Chem Lett, 2013).
